# Data taken from patent publication US12059682B2, “Method for isolation and morphological analysis of cells” (EzDiaTech Inc., priority 2018, dated 2024).
# Experiments:
# [1] = system: Escherichia coli (E. coli) ATCC 25922; assay: Rapid antibiotic susceptibility test with microwell-patterned hydrogel in 96 well plate, time-lapse imaging; type: cell-based
# Protocol: (§1) FIG. 2 is a schematic diagram illustrating a technique for dissociating cell colonies into cells at the level of individual cells and continuously observing the morphological changes of the isolated single cells by utilizing a hydrogel structure according to one embodiment of the present disclosure. Referring to (a) of FIG. 2, a conventional 96 well plate is prepared, and thereafter, a dried microwell-patterned hydrogel is inserted into each well. Referring next to (b) of FIG. 2, a cell culture medium containing bacterial cells, nutrients and antibiotics is introduced into each well containing the dry microwell-patterned hydrogel. At the initial stage of introduction, the bottom microwells of the microwell-patterned hydrogel are not yet seated on the base of the well and the microwell-patterned hydrogel is slightly floating. Thus, the bacterial cells are free to move in and out of each microwell pattern.
# (§2) Referring to (c) of FIG. 2, several or tens of minutes after the introduction, the microwell-patterned hydrogel swells and approaches the inner wall of the well. As a result, the top of the microwell-patterned hydrogel is in close contact with the inner sidewall of the well and the bottom of the microwell-patterned hydrogel is seated on and remains attached to the base of the well. At this time, the individual bacterial cell entering the space of each bottom microwell pattern of the microwell-patterned hydrogel is not free to move any further in and out of the microwell pattern and is isolated in the microwell-patterned area due to the pressure of the swollen hydrogel. In a state in which the hydrogel is fully expanded, continuous bacterial morphological changes can be observed after several hours by time-lapse imaging through an objective lens of the optical measurement system. As a result, time-lapse images of the individual bacterial cells can be obtained.
# (§3) In the case of the Streptomyces atratus (spore-type actinomycetes) cultures, the final cell concentration of the wells was controlled at 7.5×10^7 CFU/mL with tryptic soy broth (TSB, Sparks, MD) and growth was at 28° C. […] After that, 227.5 μL (91% v/v) of Mueller-Hinton broth (MHB, Fluka Analytical), 2.5 μL (1% v/v) of the antibiotics, and 20 μL (8% v/v) of bacterial cells were mixed and growth was monitored at 37° C.
# (§4) In this example, the Clinical Laboratory Standard Institute (CLSI) standard strains, Escherichia coli (E. coli) ATCC 25922 and Staphylococcus aureus (S. aureus) ATCC 29213 were tested with various concentrations of ampicillin and chloramphenicol to determine the minimum inhibitory concentration (MIC) values of the antibiotics. […] The cell growth images were recorded every hour for four hours to observe the change in cell number and morphological change to indicate growth.
# [2] = system: Staphylococcus aureus (S. aureus) ATCC 29213; assay: as above; type: cell-based
# Protocol: as §1, §2, §3, §4
# E. coli ATCC 25922 = details: cited from earlier work
# S. aureus ATCC 29213 = details: cited from earlier work
# [3] = system: methicillin-resistant Staphylococcus aureus (MRSA); assay: Rapid antibiotic susceptibility test with microwell-patterned hydrogel structures, running time 4 hours; type: cell-based; details: rapid method, running time 4 hours, read-out: minimum inhibitory concentration (MIC)
# Protocol: In the case of the Streptomyces atratus (spore-type actinomycetes) cultures, the final cell concentration of the wells was controlled at 7.5×10^7 CFU/mL with tryptic soy broth (TSB, Sparks, MD) and growth was at 28° C. For the E. coli ATCC 25922, Staphylococcus aureus ATCC 29213, and methicillin resistant Staphylococcus aureus cultures, the initial concentration of bacterial cells injected into each well was set to 3×10^8 CFU/mL with Mueller-Hinton broth (MHB, Fluka Analytical). In order to adjust the concentration of antibiotics, ampicillin (Sigma-Aldrich) and chloramphenicol (Sigma-Aldrich), a two-fold serial dilution method was used. After that, 227.5 μL (91% v/v) of Mueller-Hinton broth (MHB, Fluka Analytical), 2.5 μL (1% v/v) of the antibiotics, and 20 μL (8% v/v) of bacterial cells were mixed and growth was monitored at 37° C.
# [4] = system: methicillin-resistant Staphylococcus aureus (MRSA); assay: Conventional antibiotic susceptibility test using turbidity, running time 18-24 hours; type: cell-based; details: conventional method using turbidity, running time 18-24 hours, read-out: minimum inhibitory concentration (MIC)
# From the text: Although numerous AST approaches have been studied, molecular and cell culturing systems are typical. The molecular AST method can obtain results quickly, in just a few hours, but can be adopted only in restrictive conditions with analytical equipment such as PCR machine and requires much more research to be used widely in clinical applications. In contrast with the molecular method, the cell culturing system is accurate and most used in the clinical arena, so it is regarded as the standard AST system. The most commonly employed AST process in the cell culturing system is the liquid microdilution method. This traditional AST system requires 18˜24 hours because the liquid microdilution method determines the minimum inhibitory concentration (MIC) of the relevant antibiotics by identifying a change in turbidity of culture wells. The turbidity is indirectly measured by optical density (OD) coming from cell growth, which is proportional to the concentration of the bacterial cells in the culture well. However, the OD evaluation is not sensitive to the bacterial cell population expansion when the concentration of the bacterial cells is conspicuously low. Thus, it needs 18-24 hours to accurately distinguish whether the bacterial cells grow or not under particular concentrations of antibiotics.
Compound,"MIC ([1]; Escherichia coli, ATCC25922, 4 h, E. coli ATCC 25922, hydrogel device, images every hour for four hours, 37° C., read-out: minimum inhibitory concentration (MIC)) [µg/mL]","MIC ([2]; Staphylococcus aureus, ATCC29213, 4 h, S. aureus ATCC 29213, hydrogel device, images every hour for four hours, 37° C., read-out: minimum inhibitory concentration (MIC)) [µg/mL]",CLSI minimum inhibitory concentration (MIC) range (E. coli ATCC 25922) [µg/mL],CLSI minimum inhibitory concentration (MIC) range (S. aureus ATCC 29213) [µg/mL],"concentration at which cells could not divide and showed filamentary growth ([1]; E. coli, optical microscopic images, FIG. 8 (a)) [µg/mL]","concentration at which bacterial cells could not divide or grow ([2]; S. aureus, optical microscopic images, FIG. 8 (b)) [µg/mL]",MIC [3] [µg/mL],MIC [4] [µg/mL]
O=C(N[C@H](CO)[C@H](O)c1ccc([N+](=O)[O-])cc1)C(Cl)Cl [chloramphenicol],8,4,2 to 8,2 to 8,,,,
CC1(C)S[C@@H]2[C@H](NC(=O)[C@H](N)c3ccccc3)C(=O)N2[C@H]1C(=O)O [ampicillin],,,2 to 8,0.5 to 2,≥ 2,≥ 2,64,64
